Where two headings read alike, the source gives them in different places.
Tests used:
dopamine D2 receptor = biological target: T1, dopamine D2 receptor (Rattus norvegicus, UniProt P61169); assay: Receptor Binding Assay: dopamine D2 binding, 3H-spiperone, striatal P2 fraction; details: 3H-spiperone 0.05 nM, 45 min at 37° C., read-out: D-2 Binding K-I
T1 construct: P2 fraction (synaptosomal membranes) prepared from male, Wistar rats; from tissue; host or cells: striatum of male Wistar rats, P2 fraction (synaptosomal membranes)
Method: The dopamine D2 binding activity of compounds was determined using a P2 fraction (synaptosomal membranes) prepared from male, Wistar rats. […] The data from this assay were analyzed by calculating the percent inhibition of the binding of the tritiated ligands by given concentrations of the test compound. Ki values, where given, were obtained from the logit analysis of concentration-inhibition curves.

[1] = tested on: Conditioned Avoidance Responding (Rat); assay: Block of Conditioned Avoidance Responding (Rat) test (CAR); type: in vivo; details: for change in vivo at 5 mg/kg: read-out: CAR 5 mg/kg (IP) (mean % change in CAR); for Escape Loss (% failures to escape, group mean): at CAR 5 mg/kg IP
Text: Block of Conditioned Avoidance Responding (Rat)
Apparatus: Rat operant chambers, housed within sound attenuated booths, both from Capden Instruments Ltd., were used in this test. The test chamber (8" H×90-3/8" W×9" D) is constructed of aluminum and plexiglass with floor grid bars of stainless-steel (1/8" O.D.) spaced 9/16" apart. A stainless-steel operation level 1-1/2" wide projects 3/4" into the chamber and is positioned 2-2/8" above the grid floor. The shock stimulus is delivered via the grid floor by a Coulbourn Instruments solid state module. The parameters of the test and the collection of data are controlled automatically.
The rats are trained for two weeks to approach criterion levels in the avoidance test (90% avoidance rate). One-hour training sessions are run at about the same time each day for four or five days a week. The training session consists of 120 trials, with the conditioned stimuli presented every 30 seconds. A trail begins with presentation of the conditioned stimuli (a light and a tone). If the rat responds by depressing the operant lever during the 15-second presentation of the conditioned stimuli, the trial is terminated and the animal is credited with a CAR. Failure to respond during the conditioned stimuli causes the presentation of the unconditioned stimulus, a 0.7 mA shock which is accompanied by a light and tone for […]. If the rat depressed the lever within the ten-second period, the shock and trial are terminated and an escape response recorded. If the rat fails to depress the lever during the UCS (shock), the trial is terminated after ten seconds of shock and the absence of a response is scored as a failure to escape. Intertrial level presses have no effect. If a rat performs at the 90% CAR level for two weeks, it is then run twice a week o the test schedule (see below) until baseline performance stabilized.
The percent change in CAR on the drug treatment day compared to vehicle pretreatment day is the key measure. The percent change (% change) in CAR is determined using the following formula:
% change CAR=((Day 2% CAR/Day 1% CAR)×100)-100
A negative number indicates a blockade of CAR, whereas a positive number would indicate increased CAR. The test results are reported as the mean % change for the group of rats. […] Failure to escape was calculated for each animal as follows:
% Failures=# of Failures to Escape/# of trials
The % failures, viz., loss of escape, is also reported as a group mean. Failures to escape are monitored closely and a session is terminated if ten failures occurred.

[2] = rat, 5 mg/kg IP, negative number = blockade of CAR, -20% is the minimum for active

T1 sequence (P61169 whole entry): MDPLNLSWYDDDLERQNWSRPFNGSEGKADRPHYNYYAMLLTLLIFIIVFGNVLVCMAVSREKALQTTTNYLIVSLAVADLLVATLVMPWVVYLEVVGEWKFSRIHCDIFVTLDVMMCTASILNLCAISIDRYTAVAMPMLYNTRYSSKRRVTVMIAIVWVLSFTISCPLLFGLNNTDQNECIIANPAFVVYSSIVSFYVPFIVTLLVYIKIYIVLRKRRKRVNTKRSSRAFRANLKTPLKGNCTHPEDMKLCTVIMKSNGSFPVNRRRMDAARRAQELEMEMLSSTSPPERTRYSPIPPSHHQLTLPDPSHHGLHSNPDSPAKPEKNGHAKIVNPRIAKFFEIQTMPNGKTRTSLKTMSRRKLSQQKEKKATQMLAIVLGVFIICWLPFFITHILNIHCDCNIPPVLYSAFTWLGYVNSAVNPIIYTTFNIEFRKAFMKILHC

SMILES | Ki (dopamine D2 receptor) | change in vivo at 5 mg/kg ([1]; Rattus norvegicus, ip) | Escape Loss (% failures to escape, group mean) ([1]; rat) | change in vivo at 5 mg/kg [1, 2]
CC(C)Oc1ccccc1N1CCN(Cc2cccc(CO)c2)CC1 [Compound 4, 1-(3-Hydroxymethylphenyl)methyl-4-[2-(1-methylethoxy)phenyl]-piperazine] | 302 nM | -89.2% | 13% | –
COc1ccccc1N1CCN(Cc2cccc(C(O)c3ccccc3)c2)CC1 (stereo not drawn) [Compound 5, [3-[4-(2-Methoxyphenyl)-1-piperazinyl]methyl]-α-phenylbenzenemethanol] | 87 nM | – | 2% | -64.6%
CCC(C)(O)c1cccc(CN2CCN(c3ccccc3OC)CC2)c1 (stereo not drawn) [Compound 6, [3-[4-(2-Methoxyphenyl)-1-piperazinyl]methyl]-α-methyl-α-ethylbenzenemethanol] | 198 nM | – | 2% | -86%
COc1ccccc1N1CCN(Cc2cccc(C(O)C(C)C)c2)CC1 (stereo not drawn) [Compound 7, [3-[4-(2-Methoxyphenyl)-1-piperazinyl]methyl]-α-(1-methylethyl)-benzenemethanol] | 90 nM | – | 12% | -98.8%
COc1ccccc1N1CCN(Cc2cccc(C(O)C3CCCCC3)c2)CC1 (stereo not drawn) [Compound 8, [3-[4-(2-Methoxyphenyl)-1-piperazinyl]methyl]-α-(cyclohexyl)-benzenemethanol] | 16 nM | – | 2% | -92.9%
COc1ccccc1N1CCN(Cc2ccc(C(O)c3ccccc3)cc2)CC1 (stereo not drawn) [Compound 9, [4-[4-(2-Methoxyphenyl)-1-piperazinyl]methyl]-α-phenylbenzenemethanol] | 53 nM | – | 32% | -99.4%
